Laboratory results published in US8835644B2, “Broad spectrum benzothiophene-nitrothiazolide and other antimicrobials” (University of Virginia Patent Foundation, priority 2009, dated 2014).
Values after ≈ are worked out from the molar mass of the structure shown. Structures can show the parent of a compound that is named as a salt. Where two headings read alike, the source gives them in different places.

Experiments:
[1] = test system: S. epidermidis; experiment: MIC testing by broth dilution, S. epidermidis plank; assay type: cell-based, Staphylococcus epidermidis; settings: 24 h, read-out: MIC (μM) S. epidermidis Plank
Experimental: (§1) A standard broth dilution protocol was used in 96 well microplates containing a standard dilution of the microorganism to be tested in 100 microliters of the appropriate medium. Appropriate medium: E. coli, LB medium; Staphylococcus strains, Trypticase Soy; and for H. pylori and C. jejuni, Brain Heart Infusion. The compounds to be tested were set at 32 μg/ml in 200 microliters in well one and then serially diluted to provide a range from 32 to 0.06. The wells were scored visually at 24 h. The well where there was no growth was recorded as the MIC. Clostridium difficile was tested by agar diffusion and disk diffusion (Kirby Bower) methods under anaerobic conditions on Wilkins Chalgrin agar. In these assays, zone of inhibited growth was measured and compared by relative ratio to the zone recorded for NTZ.
(§2) Representative compounds of the invention were tested in a series of assays against a series of organisms as described above. […] The organisms tested include, C. difficile, H. pylori, C. jejuni, MRSA, S. epidermidis, and E. coli. S. epidermidis and E. coli were tested in the plank and biofilm assay. A disk diffusion assay was also used for C. difficile. Direct PFOR enzyme assays were also performed. All analogues and derivatives were not tested on every organism in every type of assay (the “-” in each table means that it was not tested).

[2] = test system: E. coli; experiment: MIC testing by broth dilution, E. coli plank; assay type: cell-based, Escherichia coli; settings: 24 h, read-out: MIC (μM) E. coli Plank
Experimental: as §1, §2

[3] = test system: E. coli biofilm; experiment: E. coli biofilm assay (activity tables); assay type: cell-based, Escherichia coli; settings: read-out: MIC (μM) E. coli Biofilm
Experimental: A quantitative biofilm assay was used to determine the effect of NTZ on biofilm formation (41). Strain 042 was grown overnight at 37° C. with shaking and inoculated 1:100 in 200 μl culture medium in Costar 96-well, flat-bottom, polystyrene microtiter plates containing appropriate concentrations of NTZ. Plates were incubated statically at 37° C. in a humidified incubator. At 24 h, bacterial growth was measured by either transferring […] aliquots to another microtiter plate to determine turbidity or by diluting 100 μl aliquots 1:100 in 9.9 ml PBS for quantitative plate counts on LB medium. Bacterial counts in triplicate are reported as cfu/ml. Biofilm was visualized following staining with 0.5% crystal violet (41) and the absorbance was read at 570 nm using a microplate reader (Molecular Dynamics). All experiments were in triplicate and reported as mean and standard deviation.
as §1, §2

[4] = test system: C. jejuni; experiment: MIC testing by broth dilution, C. jejuni; assay type: cell-based, Campylobacter jejuni; settings: 24 h, read-out: MIC (μM) C. jejuni
Experimental: as §1, §2

[5] = test system: S. epidermidis biofilm; experiment: S. epidermidis biofilm assay (activity tables); assay type: cell-based, Staphylococcus epidermidis
Experimental: Staphylococcal strains were cultured overnight in TSB at 37° C. with shaking, diluted in fresh medium to an OD600 of 0.01 and 200 W was dispensed into sterile flat bottom polystyrene 96 well microtiter plates (Costar 3596, Corning Inc.). […] Each compound and dilution was tested in triplicate. The plates were incubated overnight at 37° C. in a humidified incubator, without shaking and both growth and biofilm accumulation were determined at 16 h.
Following recording of turbidities, the culture medium was aspirated and the wells were washed three times with distilled water, blotted on paper towels, and fixed with 75% ethanol for 10 minutes.
To visualize biofilm material, 0.5% crystal violet was added to each well and after 5 minutes was removed and the wells washed three times with distilled water. Plates were read using a microplate reader at a wavelength of 570 nm. The dye was then extracted by adding 200 W of 95% ethanol, and the absorbance was read again at 570 nm. All assays were performed in triplicate and the mean and standard deviation determined. […]
as §2

[6] = test system: H. pylori; experiment: MIC testing by broth dilution, H. pylori; assay type: cell-based, Helicobacter pylori; settings: 24 h, read-out: MIC (μM) H. pylori
Experimental: as §1, §2

[7] = test system: MRSA; experiment: MIC testing by broth dilution, MRSA; assay type: cell-based, Staphylococcus aureus; settings: 24 h, read-out: MIC (μM) MRSA
Experimental: as §1, §2

[8] = test system: C. difficile; experiment: Disk diffusion (Kirby Bower), C. difficile; assay type: cell-based, Clostridium difficile; settings: zone of inhibited growth as relative ratio to the zone for NTZ
Experimental: as §1, §2

[9] = broth dilution, Brain Heart Infusion

SMILES	MIC ([1]; broth dilution, Trypticase Soy) [µM]	MIC ([2]; broth dilution, LB medium) [µM]	MIC ([3]; biofilm) [µM]	MIC [4, 9] [µM]	MIC (μM) S. epidermidis Biofilm [5] [µM]	MIC [6, 9] [µM]	MIC ([7]; broth dilution, Trypticase Soy) [µM]	Disk Diffusion (%) C. difficile [8] [%]	MIC ([1]; Staphylococcus epidermidis) [µM]	MIC ([2]; Escherichia coli) [µM]	MIC ([3]; Escherichia coli) [µM]	MIC ([4]; Campylobacter jejuni) [µM]	MIC ([6]; Helicobacter pylori) [µM]	MIC ([7]; Staphylococcus aureus, MRSA) [µM]
CC1=C(C(=O)Nc2ncc([N+](=O)[O-])s2)Cc2ccccc21 [VPC16a1018]	106.2 (≈ 32 µg/mL)	106.2 (≈ 32 µg/mL)	53.1 (≈ 16 µg/mL)	10.7 (≈ 3.22 µg/mL)	26.5 (≈ 7.99 µg/mL)	0.7 (≈ 0.211 µg/mL)	106.2 (≈ 32 µg/mL)	–	–	–	–	–	–	–
O=C(CCCc1ccccc1)Nc1ncc([N+](=O)[O-])s1 [VPC16a1020]	109.8 (≈ 32 µg/mL)	109.8 (≈ 32 µg/mL)	54.9 (≈ 16 µg/mL)	2.6 (≈ 0.757 µg/mL)	–	13.8 (≈ 4.02 µg/mL)	109.8 (≈ 32 µg/mL)	33 ± 3	–	–	–	–	–	–
Cl.N[C@H](C(=O)Nc1ncc([N+](=O)[O-])s1)c1ccccc1 [VPC16a1027]	101.7	101.7	25.4	38.1	101.7	76.3	101.7	–	–	–	–	–	–	–
N[C@@H](Cc1ccccc1)C(=O)Nc1ncc([N+](=O)[O-])s1 [VPC16a1028, (S)-2-Amino-N-(5-nitrothiazol-2-yl)-3-phenylpropanamide hydrochloride]	–	–	–	–	97.3	–	–	–	97.3	97.3	48.7	36.5	18.3	97.3
NCCCC[C@H](N)C(=O)Nc1ncc([N+](=O)[O-])s1 [VPC16a1032]	92.4 (≈ 25.3 µg/mL)	92.4 (≈ 25.3 µg/mL)	0.1 (≈ 0.0273 µg/mL)	92.4 (≈ 25.3 µg/mL)	92.4 (≈ 25.3 µg/mL)	69.3 (≈ 18.9 µg/mL)	92.4 (≈ 25.3 µg/mL)	–	–	–	–	–	–	–
CC(=O)Nc1ncc([N+](=O)[O-])s1 [VPC16a1033]	21.4 (≈ 4.01 µg/mL)	42.7 (≈ 7.99 µg/mL)	42.7 (≈ 7.99 µg/mL)	14.0 (≈ 2.62 µg/mL)	21.4 (≈ 4.01 µg/mL)	3.5 (≈ 0.655 µg/mL)	171.0 (≈ 32 µg/mL)	–	–	–	–	–	–	–
O=C(CCc1ccccc1)Nc1ncc([N+](=O)[O-])s1 [VPC16b1030]	14.4 (≈ 3.99 µg/mL)	115.4 (≈ 32 µg/mL)	50.5 (≈ 14 µg/mL)	1.30 (≈ 0.36 µg/mL)	–	0.3 (≈ 0.0832 µg/mL)	115.4 (≈ 32 µg/mL)	54.5 ± 0.5	–	–	–	–	–	–
CCCCCCCCCC(=O)Nc1ncc([N+](=O)[O-])s1 [VPC16b1043]	106.9 (≈ 32 µg/mL)	106.9 (≈ 32 µg/mL)	106.9 (≈ 32 µg/mL)	3.9 (≈ 1.17 µg/mL)	1.7 (≈ 0.509 µg/mL)	1.2 (≈ 0.359 µg/mL)	106.9 (≈ 32 µg/mL)	–	–	–	–	–	–	–
CCCC(=O)Nc1ncc([N+](=O)[O-])s1 [VPC16b1045]	37.2 (≈ 8.01 µg/mL)	148.7 (≈ 32 µg/mL)	148.7 (≈ 32 µg/mL)	2.1 (≈ 0.452 µg/mL)	4.6 (≈ 0.99 µg/mL)	0.5 (≈ 0.108 µg/mL)	148.7 (≈ 32 µg/mL)	–	–	–	–	–	–	–
CC(C)(C(=O)Nc1ncc([N+](=O)[O-])s1)C(=O)Nc1ncc([N+](=O)[O-])s1 [VPC16b1048]	82.8 (≈ 32 µg/mL)	82.8 (≈ 32 µg/mL)	82.8 (≈ 32 µg/mL)	82.8 (≈ 32 µg/mL)	41.4 (≈ 16 µg/mL)	20.7 (≈ 8 µg/mL)	82.8 (≈ 32 µg/mL)	–	–	–	–	–	–	–
CC(=O)Oc1cc(C#N)ccc1C(=O)Nc1ncc([N+](=O)[O-])s1 [VPC161076]	96.3 (≈ 32 µg/mL)	96.3 (≈ 32 µg/mL)	96.3 (≈ 32 µg/mL)	96.3 (≈ 32 µg/mL)	48.2 (≈ 16 µg/mL)	24.1 (≈ 8.01 µg/mL)	96.3 (≈ 32 µg/mL)	–	–	–	–	–	–	–
O=C(Nc1ncc([N+](=O)[O-])s1)c1cccc([N+](=O)[O-])c1O [VPC161090]	77.4 (≈ 24 µg/mL)	103.1 (≈ 32 µg/mL)	103.1 (≈ 32 µg/mL)	103.1 (≈ 32 µg/mL)	6.4 (≈ 1.99 µg/mL)	19.3 (≈ 5.99 µg/mL)	103.1 (≈ 32 µg/mL)	–	–	–	–	–	–	–
O=C(Nc1ncc([N+](=O)[O-])s1)c1ccc(F)cc1C(F)(F)F [VPC161127]	23.9 (≈ 8.01 µg/mL)	95.5 (≈ 32 µg/mL)	95.5 (≈ 32 µg/mL)	23.9 (≈ 8.01 µg/mL)	13.4 (≈ 4.49 µg/mL)	3.4 (≈ 1.14 µg/mL)	8.9 (≈ 2.98 µg/mL)	–	–	–	–	–	–	–
O=C(Nc1ncc([N+](=O)[O-])s1)c1cccc(F)c1 [VPC161166]	22.5 (≈ 6.01 µg/mL)	119.7 (≈ 32 µg/mL)	59.9 (≈ 16 µg/mL)	11.2 (≈ 2.99 µg/mL)	59.9 (≈ 16 µg/mL)	0.9 (≈ 0.241 µg/mL)	16.8 (≈ 4.49 µg/mL)	–	–	–	–	–	–	–
O=C(Nc1ncc([N+](=O)[O-])s1)c1ccc([N+](=O)[O-])cc1 [VPC161170]	10.2 (≈ 3 µg/mL)	81.6 (≈ 24 µg/mL)	108.8 (≈ 32 µg/mL)	13.6 (≈ 4 µg/mL)	3.4 (≈ 1 µg/mL)	1.3 (≈ 0.383 µg/mL)	20.4 (≈ 6 µg/mL)	–	–	–	–	–	–	–
COc1ccc(-c2ccc(F)cc2F)cc1C(=O)Nc1ncc([N+](=O)[O-])s1 [VPC161171]	81.8 (≈ 32 µg/mL)	81.8 (≈ 32 µg/mL)	81.8 (≈ 32 µg/mL)	40.9 (≈ 16 µg/mL)	81.8 (≈ 32 µg/mL)	0.8 (≈ 0.313 µg/mL)	81.8 (≈ 32 µg/mL)	–	–	–	–	–	–	–
N#Cc1cccc(C(=O)Nc2ncc([N+](=O)[O-])s2)c1 [VPC161173]	29.2 (≈ 8.01 µg/mL)	116.7 (≈ 32 µg/mL)	116.7 (≈ 32 µg/mL)	36.5 (≈ 10 µg/mL)	58.3 (≈ 16 µg/mL)	4.1 (≈ 1.12 µg/mL)	43.8 (≈ 12 µg/mL)	–	–	–	–	–	–	–
O=C(Nc1ncc([N+](=O)[O-])s1)c1cccnc1 [VPC161176]	127.9 (≈ 32 µg/mL)	127.9 (≈ 32 µg/mL)	127.9 (≈ 32 µg/mL)	71.9 (≈ 18 µg/mL)	63.9 (≈ 16 µg/mL)	4.0 (≈ 1 µg/mL)	127.9 (≈ 32 µg/mL)	–	–	–	–	–	–	–
O=C(Nc1ncc([N+](=O)[O-])s1)c1ccncc1 [VPC161177]	127.9 (≈ 32 µg/mL)	127.9 (≈ 32 µg/mL)	127.9 (≈ 32 µg/mL)	24.0 (≈ 6.01 µg/mL)	127.9 (≈ 32 µg/mL)	16.0 (≈ 4 µg/mL)	127.9 (≈ 32 µg/mL)	–	–	–	–	–	–	–
O=C(O)CCCC(=O)Nc1ncc([N+](=O)[O-])s1 [VPC161273]	–	123.4 (≈ 32 µg/mL)	61.7 (≈ 16 µg/mL)	123.4 (≈ 32 µg/mL)	123.4 (≈ 32 µg/mL)	5.8 (≈ 1.5 µg/mL)	123.4 (≈ 32 µg/mL)	–	–	–	–	–	–	–
NCCCCOc1ccccc1C(=O)Nc1ncc([N+](=O)[O-])s1.O=C(O)C(F)(F)F [VPC162096TFA]	35.5	71.0	–	6.7	–	1.7	71.0	111	–	–	–	–	–	–
Cl.NCCCOc1ccccc1C(=O)Nc1ncc([N+](=O)[O-])s1 [VPC162102HCl]	44.6	89.2	–	8.4	–	1.0	89.2	74	–	–	–	–	–	–
NCCCOc1ccccc1C(=O)Nc1ncc([N+](=O)[O-])s1.O=C(O)C(F)(F)F [VPC162102TFA]	73.3	73.3	–	13.8	–	0.9	73.3	79	–	–	–	–	–	–
